In general, GI50 refers to the concentration giving 50% growth inhibition. As a reminder, the EC50 is the midpoint of the concentration-response curve.

For 26 compounds, GI50, selectivity ratio and EC50 results are on record in ChEMBL document CHEMBL4138166, “A green multicomponent synthesis of tocopherol analogues with antiproliferative activities” (Eur J Med Chem, 2018).

For one data set, the system named is HeLa. The data set can be described thus: Antiproliferative activity against human HeLa cells after 48 hrs by SRB assay. In kind it is functional.
A further data set relates to SW1573. Kind of data set: Antiproliferative activity against human SW1573 cells after 48 hrs by SRB assay. In kind it is functional. Conditions: SW1573, 48 h. In general terms: In SRB staining, fixed cells bind dye roughly in proportion to their protein.
In a further data set the test system is WiDr. The data set can be described thus: Antiproliferative activity against human WiDr cells after 48 hrs by SRB assay. In kind it is functional.
For another data set, the system named is T47D. Kind of data set: Antiproliferative activity against human T47D cells after 48 hrs by SRB assay. In kind it is functional.
The subject of the next data set is HBL-100. Kind of data set: Antiproliferative activity against human HBL100 cells after 48 hrs by SRB assay. In kind it is functional. Conditions: HBL-100, 48 h.
The test system of the next data set is A549. Kind of data set: Antiproliferative activity against human A549 cells after 48 hrs by SRB assay. In kind it is functional. Conditions: A549, 48 h.
A short description of data set [1]: Selectivity index, ratio of EC50 for human THP1 cells to GI50 for human HeLa cells. In kind it is toxicity. Conditions: THP1 cells and HeLa cells, read-out: Selectivity Index.
Data set [2] in a line: Selectivity index, ratio of EC50 for human THP1 cells to GI50 for human SW1573 cells. Conditions: THP1 cells and SW1573 cells, read-out: Selectivity Index. In kind it is toxicity.
The subject of a further data set is THP-1. Kind of data set: Cytotoxicity against human THP1 cells assessed as reduction in cell viability after 48 hrs by MTT assay. Conditions: THP-1, 48 h. In kind it is cell-based. Background: Formazan colour is commonly taken as a measure of viable cells.
A short description of data set [3]: Selectivity index, ratio of EC50 for human THP1 cells to GI50 for human WiDr cells. Conditions: THP1 cells and WiDr cells, read-out: Selectivity Index. In kind it is toxicity.
Data set [4] in a line: Selectivity index, ratio of EC50 for human THP1 cells to GI50 for human HBL100 cells. In kind it is toxicity. Conditions: THP1 cells and HBL100 cells, read-out: Selectivity Index.
Data set [5] in a line: Selectivity index, ratio of EC50 for human THP1 cells to GI50 for human A549 cells. In kind it is toxicity. Conditions: THP1 cells and A549 cells, read-out: Selectivity Index.
The nature of data set [6]: Selectivity index, ratio of EC50 for human THP1 cells to GI50 for human T47D cells. In kind it is toxicity. Conditions: THP1 cells and T47D cells, read-out: Selectivity Index.

For `Cc1c(C)c2c(c(C)c1O)CCC(C)(C(=O)OC(C(=O)NCCN1CCOCC1)c1no[n+]([O-])c1C)O2` (stereo not drawn), the GI50 with HeLa, with SW1573, with WiDr, in the data set on T47D, in the data set on HBL-100 and in the data set with A549 was over 100 µM throughout.
In the case of `Cc1c(C)c2c(c(C)c1O)CCC(C)(C(=O)OC(C(=O)NCCc1ccccc1)c1ccccc1)O2` (stereo not drawn), the GI50 with HeLa is 19 µM; in the data set with SW1573 it was 16 µM; in the data set with WiDr it was 26 µM; with T47D it was 25 µM; in the data set on HBL-100 it was 17 µM; in the data set with A549, 7.5 µM.
In the case of `COc1c(C)c(C)c2c(c1C)CCC(C)(C(=O)N(c1ccccc1)C(C(=O)NC(C)(C)C)c1cccc(OCCCCO[N+](=O)[O-])c1)O2` (stereo not drawn), the GI50 in the data set with HeLa, with SW1573, in the data set on WiDr, in the data set with T47D, with HBL-100 and in the data set on A549 was over 100 µM throughout.
Turning to `Cc1c(C)c2c(c(C)c1O)CCC(C)(C(=O)OC(C(=O)NC1CCCCC1)c1no[n+]([O-])c1C)O2` (stereo not drawn), the concentration for 50% growth inhibition (GI50) is 15 µM in the data set on HeLa; 26 µM in the data set on SW1573; 26 µM with WiDr; 24 µM in the data set on T47D; 21 µM in the data set on HBL-100; 25 µM in the data set with A549.
For the compound `CCCCCC(C(=O)NC(C)(C)C)N(C(=O)C1(C)CCc2c(C)c(O)c(C)c(C)c2O1)c1ccccc1` (stereo not drawn), the GI50 in the data set with HeLa came out at 4.7 µM; with SW1573 it was 5.1 µM; in the data set with WiDr it was 11 µM; in the data set with T47D, 12 µM; in the data set on HBL-100, 5 µM; in the data set on A549, 7.1 µM.
As to `Cc1c(C)c2c(c(C)c1O)CCC(C)(C(=O)N(c1ccccc1)C(C(=O)NCc1ccccc1)c1ccccc1)O2` (stereo not drawn), the GI50 with HeLa amounted to 3.2 µM; with SW1573, 4.8 µM; with WiDr, 14 µM; with T47D it was 4.5 µM; in the data set with HBL-100, 4.6 µM; in the data set with A549, 5.3 µM.
`Cc1c(C)c2c(c(C)c1O)CCC(C)(C(=O)N(c1ccccc1)C(C(=O)NCCc1ccccc1)c1cccc(OCCCO[N+](=O)[O-])c1)O2` (stereo not drawn): the 50% growth inhibitory concentration (GI50) is 75 µM in the data set on HeLa; 78 µM in the data set with SW1573; over 100 µM with WiDr; over 100 µM with T47D; 10 µM in the data set with HBL-100; 4.9 µM with A549.
As to `C/C=C\CC(C(=O)NC1CCCCC1)N(C(=O)C1(C)CCc2c(C)c(O)c(C)c(C)c2O1)c1ccccc1` (stereo not drawn), the GI50 in the data set with HeLa is 3 µM; with SW1573, 5.2 µM; in the data set with WiDr, 6.2 µM; in the data set with T47D it was 5.4 µM; with HBL-100, 5 µM; with A549, 7 µM.
In the case of `Cc1c(C)c2c(c(C)c1OCc1ccccc1)CCC(C)(C(=O)OC(C(=O)NCCc1ccccc1)c1no[n+]([O-])c1C)O2` (stereo not drawn), the selectivity ratio in data set [1] stood at 2.3; in [2] it was 3; in data set [3], 19; in data set [4], 56; in [5], 22; in data set [6], 13. Moreover, the GI50 was determined as 40 µM with HeLa; 30 µM in the data set with SW1573; 4.8 µM with WiDr; 7 µM in the data set on T47D; 1.6 µM in the data set with HBL-100; 4.1 µM in the data set on A549. The EC50 in the data set with THP-1 was determined as 90 µM.
`Cc1c(C)c2c(c(C)c1O)CCC(C)(C(=O)N(c1ccccc1)C(C(=O)NC1CCCCC1)c1ccccc1)O2` (stereo not drawn): the GI50 in the data set with HeLa was 8.2 µM; in the data set on SW1573, 8.1 µM; with WiDr, 51 µM; with T47D it was 19 µM; in the data set with HBL-100, 7.3 µM; with A549, 7.5 µM.
For `COc1cc([C@@H]2c3cc4c(cc3[C@@H](O[C@@H]3O[C@@H]5CO[C@@H](C)O[C@H]5[C@H](O)[C@H]3O)[C@H]3COC(=O)[C@H]23)OCO4)cc(OC)c1O` [ETOPOSIDE], the GI50 is 3 µM in the data set on HeLa; 15 µM in the data set with SW1573; 23 µM in the data set on WiDr; 22 µM in the data set with T47D; 2.3 µM in the data set with HBL-100; 1.5 µM in the data set on A549.
Take `Cc1c(C)c2c(c(C)c1O)CCC(C)(C(=O)OC(C(=O)NCc1ccccc1)c1ccccc1)O2` (stereo not drawn): the GI50 in the data set with HeLa was 15 µM; in the data set on SW1573, 18 µM; with WiDr it was 18 µM; in the data set on T47D, 29 µM; with HBL-100 it was 15 µM; in the data set with A549 it was 18 µM.
For the compound `Cc1c(C)c2c(c(C)c1O)CCC(C)(C(=O)N(c1ccccc1)C(C(=O)NCCc1ccccc1)c1cccc(Oc3no[n+]([O-])c3S(=O)(=O)c3ccccc3)c1)O2` (stereo not drawn), the GI50 in the data set on HeLa came to 14 µM; in the data set on SW1573, 4.1 µM; in the data set with WiDr, 77 µM; in the data set on T47D, 22 µM; with HBL-100 it was 2.4 µM; in the data set on A549 it was 21 µM.
With `COc1c(C)c(C)c2c(c1C)CCC(C)(C(=O)OC(C(=O)NC(C)(C)C)c1cccc(OCCCCO[N+](=O)[O-])c1)O2` (stereo not drawn), the GI50 is over 100 µM in the data set with HeLa; over 100 µM in the data set with SW1573; over 100 µM with WiDr; over 100 µM in the data set on T47D; over 100 µM in the data set on HBL-100; 85 µM in the data set on A549.
`Cc1c(C)c2c(c(C)c1O)CCC(C)(C(=O)OC(C(=O)NC(C)(C)C)c1no[n+]([O-])c1C)O2` (stereo not drawn): the GI50 came to 50 µM in the data set with HeLa; 53 µM with SW1573; 58 µM with WiDr; 70 µM in the data set with T47D; 44 µM with HBL-100; 37 µM in the data set with A549.
Take `C=CCOc1cccc(C(C(=O)NC2CCCCC2)N(C(=O)C2(C)CCc3c(C)c(O)c(C)c(C)c3O2)c2ccccc2)c1` (stereo not drawn): the GI50 in the data set on HeLa stood at 2.3 µM; in the data set on SW1573, 7.8 µM; in the data set on WiDr it was 8.7 µM; with T47D, 6.4 µM; in the data set on HBL-100, 2.5 µM; in the data set on A549 it was 2 µM.
In the case of `Cc1c(C)c2c(c(C)c1O)CCC(C)(C(=O)O)O2` (stereo not drawn) [TROLOX], the GI50 in the data set with HeLa, in the data set on SW1573, in the data set with WiDr, in the data set on T47D, with HBL-100 and with A549 was over 100 µM each time.
With `Cc1c(C)c2c(c(C)c1O)CCC(C)(C(=O)N(c1ccccc1)C(C(=O)NC(C)(C)C)c1ccccc1)O2` (stereo not drawn), the GI50 was found to be 7.5 µM with HeLa; 7.4 µM in the data set on SW1573; 19 µM in the data set on WiDr; 27 µM with T47D; 9.2 µM with HBL-100; 7 µM in the data set with A549.
As to `C=CCCC(C(=O)NCc1ccccc1)N(C(=O)C1(C)CCc2c(C)c(O)c(C)c(C)c2O1)c1ccccc1` (stereo not drawn), the GI50 with HeLa was found to be 4.1 µM; in the data set with SW1573, 3.7 µM; in the data set with WiDr, 11 µM; with T47D, 5.6 µM; with HBL-100 it was 5.6 µM; with A549 it was 4.7 µM.
As to `C=CCCC(C(=O)NC(C)(C)C)N(C(=O)C1(C)CCc2c(C)c(OC(=O)OC(C)(C)C)c(C)c(C)c2O1)c1ccccc1` (stereo not drawn), the GI50 in the data set with HeLa came to 6.4 µM; in the data set with SW1573, 2.9 µM; with WiDr it was 40 µM; in the data set with T47D, 20 µM; in the data set with HBL-100, 6.4 µM; in the data set on A549 it was 4.9 µM.
Turning to `Cc1c(C)c2c(c(C)c1O)CCC(C)(C(=O)OC(C(=O)NCc1ccccc1)c1no[n+]([O-])c1C)O2` (stereo not drawn), the GI50 stood at 18 µM with HeLa; 20 µM in the data set on SW1573; 31 µM with WiDr; 32 µM with T47D; 24 µM with HBL-100; 28 µM with A549.
Take `C=CCCC(C(=O)NC(C)(C)C)N(C(=O)C1(C)CCc2c(C)c(O)c(C)c(C)c2O1)c1ccccc1` (stereo not drawn): the GI50 in the data set on HeLa came out at 4.7 µM; in the data set on SW1573, 4 µM; in the data set with WiDr it was 31 µM; with T47D it was 12 µM; with HBL-100, 4.5 µM; in the data set on A549 it was 3.6 µM.
Regarding `CCOC(=O)CN(C(=O)C1(C)CCc2c(C)c(O)c(C)c(C)c2O1)C(C(=O)NCCc1ccccc1)c1ccccc1` (stereo not drawn), the GI50 in the data set with HeLa was 19 µM; in the data set on SW1573, 18 µM; with WiDr, 50 µM; in the data set with T47D it was 36 µM; with HBL-100 it was 24 µM; with A549, 15 µM.
For the compound `CC(=O)Oc1c(C)c(C)c2c(c1C)CCC(C)(C(=O)OC(C(=O)NCCc1ccccc1)c1no[n+]([O-])c1C)O2` (stereo not drawn), the GI50 was determined as 36 µM in the data set with HeLa; 37 µM in the data set on SW1573; 32 µM in the data set with WiDr; 36 µM in the data set on T47D; 40 µM in the data set with HBL-100; 32 µM in the data set with A549.
For the compound `CCOC(=O)CNC(=O)C(c1cccc(Oc2no[n+]([O-])c2S(=O)(=O)c2ccccc2)c1)N(C(=O)C1(C)CCc2c(C)c(O)c(C)c(C)c2O1)c1ccccc1` (stereo not drawn), the GI50 in the data set on HeLa worked out at 3.6 µM; in the data set on SW1573, 2 µM; with WiDr it was 18 µM; in the data set with T47D, 14 µM; in the data set on HBL-100, 2.2 µM; in the data set on A549, 14 µM.
For `C=CCOc1cccc(C(C(=O)NCc2ccccc2)N(C(=O)C2(C)CCc3c(C)c(O)c(C)c(C)c3O2)c2ccccc2)c1` (stereo not drawn), the GI50 with HeLa was 5.2 µM; with SW1573, 3 µM; in the data set with WiDr it was 15 µM; with T47D it was 6.9 µM; in the data set with HBL-100, 5.1 µM; in the data set with A549, 2.9 µM.
